The values that follow come from ChEMBL document CHEMBL1140713, “2,3-dihydro-6,7-dihydroxy-1H-isoindol-1-one-based HIV-1 integrase inhibitors” (J Med Chem, 2008).

Test [1] has as its system Human immunodeficiency virus 1. Put plainly: Antiviral activity against HIV1 in cell based assay. The format is functional, organism-based.
In test [2] the target is T1, Human immunodeficiency virus type 1 integrase (Human immunodeficiency virus 1, UniProt Q7ZJM1). Put plainly: Inhibition of recombinant HIV1 integrase-mediated 3'-processing activity in presence of magnesium.
In test [3] the target is T1, Human immunodeficiency virus type 1 integrase. Briefly: Inhibition of recombinant HIV1 integrase strand transfer activity in presence of magnesium.
Test [4] shares this target. Put plainly: Inhibition of recombinant HIV1 integrase strand transfer activity in presence of manganese.
The target is the same in test [5]. Briefly: Inhibition of recombinant HIV1 integrase-mediated 3'-processing activity in presence of manganese.

A value given as a limit tells only on which side of the number the result lay.

The term EC50 denotes the concentration at which the effect is half-maximal. In general, IC50 refers to the concentration needed to halve the response being measured.

T1 sequence (Q7ZJM1 whole entry): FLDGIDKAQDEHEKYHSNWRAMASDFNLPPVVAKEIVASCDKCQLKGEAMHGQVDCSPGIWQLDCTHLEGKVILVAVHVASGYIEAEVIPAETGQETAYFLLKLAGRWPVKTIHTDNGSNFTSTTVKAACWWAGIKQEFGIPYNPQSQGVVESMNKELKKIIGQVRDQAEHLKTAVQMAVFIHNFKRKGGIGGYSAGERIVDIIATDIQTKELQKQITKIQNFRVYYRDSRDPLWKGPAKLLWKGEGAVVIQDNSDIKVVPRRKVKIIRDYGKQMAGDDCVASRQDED

For `O=C1c2c(ccc(O)c2O)CN1Cc1ccccc1`, in test [1], the concentration for a half-maximal effect (EC50) was 0.68 µM. In addition, the IC50 was more than 333 µM in test [2] and 12.3 µM in test [3].
Take `COc1cccc(C(=O)NCc2ccc(F)cc2)c1O`: the IC50 in test [2] and in test [3] was more than 333 µM in each case.
Take `COc1cccc(C(=O)NN)c1O`: the IC50 in test [4], in test [2], in test [5] and in test [3] was more than 333 µM throughout.
`O=C(NNC(=O)c1cccc(O)c1O)c1cc2ccccc2cc1O`: the IC50 in test [4] was 16 µM; in test [2] it was 72 µM; in test [5], 19 µM; in test [3], 32 µM.
For `O=C(NNC(=O)c1cccc(O)c1O)c1cccc(O)c1O`, the half-maximal inhibitory concentration (IC50) in test [4] turned out to be 5 µM; in test [2] it was 6.9 µM; in test [5] it was 8.9 µM; in test [3] it was 1.6 µM. The molecule also yielded an EC50 in test [1] of 1.67 µM.
In the case of `O=C(N/N=C/c1cccc(O)c1O)c1cccc(O)c1O`, the IC50 in test [4] was 1.3 µM; in test [2], 61 µM; in test [5], 11 µM; in test [3] it was 54 µM.
For `O=C(NNC(=O)c1cccc(O)c1O)c1ccccc1O`, the concentration for half-maximal inhibition (IC50) in test [4] was 0.5 µM; in test [2] it was more than 333 µM; in test [5], 2.8 µM; in test [3] it was more than 333 µM. Also, the concentration for a half-maximal effect (EC50) in test [1] was found to be 4.8 µM.
`COc1cccc(C(=O)N/N=C/c2ccc(F)cc2)c1O`: the IC50 in test [2] and in test [3] was more than 333 µM in each case.
With `O=C(NNC(=O)c1cccc(O)c1O)c1cccnc1`, the IC50 in test [4] is 112 µM; in test [2] it was more than 333 µM; in test [5] it was more than 333 µM; in test [3], more than 333 µM.
For the molecule `O=C(NCc1ccc(F)cc1)c1cccc(O)c1O`, the EC50 in test [1] was more than 30 µM. Moreover, the IC50 in test [2] is more than 333 µM; in test [3], 108 µM.
Turning to `O=C1c2c(ccc(O)c2O)CN1N1C(=O)c2ccc(F)cc2C1=O`, the half-maximal inhibitory concentration (IC50) in test [2] was found to be 186 µM; in test [3], 53 µM.
As to `COc1cccc(C(=O)NNC(=O)c2cccc(O)c2O)c1O`, the IC50 was found to be 9 µM in test [4], 138 µM in test [2], 11 µM in test [5] and 44 µM in test [3].
`O=C1c2c(ccc(O)c2O)CN1N1C(=O)c2ccccc2C1=O`: the 50% inhibitory concentration (IC50) in test [2] and in test [3] was more than 333 µM each time.
For the molecule `O=C(NN1Cc2ccc(O)c(O)c2C1=O)c1ccccc1`, the IC50 was more than 333 µM in test [2] and 129 µM in test [3].
`O=C1c2c(ccc(O)c2O)CN1CCc1ccccc1`: the IC50 in test [2] is more than 333 µM; in test [3] it was 28 µM.
Regarding `COc1cccc(C(=O)NNC(=O)c2cc3ccccc3cc2O)c1O`, the IC50 is 8 µM in test [4], more than 333 µM in test [2], 12 µM in test [5] and more than 333 µM in test [3].
Consider `NNC(=O)c1cccc(O)c1O`, for which the concentration for half-maximal inhibition (IC50) was 111 µM in test [4], more than 333 µM in test [2], more than 333 µM in test [5] and more than 333 µM in test [3].
Regarding `O=C(NN1Cc2ccc(O)c(O)c2C1=O)c1cccc(O)c1O`, the IC50 in test [2] was more than 333 µM; in test [3] it was 6 µM.
Regarding `O=C1c2c(ccc(O)c2O)CN1Cc1cccc2ccccc12`, the concentration for half-maximal inhibition (IC50) was 61 µM in test [2] and 0.74 µM in test [3].
For `O=C1c2c(ccc(O)c2O)CN1N1Cc2ccc(O)c(O)c2S1(=O)=O`, the half-maximal inhibitory concentration (IC50) in test [2] stood at 7 µM; in test [3], 1.2 µM.
For the molecule `O=C1c2ccc(O)c(O)c2CN1Cc1ccc(F)cc1`, the concentration for half-maximal inhibition (IC50) in test [2] and in test [3] was more than 333 µM in each case.
For the molecule `O=C(NN1Cc2ccc(O)c(O)c2C1=O)c1ccccc1O`, the IC50 in test [2] is more than 333 µM; in test [3], 293 µM.
For `O=C1c2c(ccc(O)c2O)CN1N1Cc2ccc(O)c(O)c2C1=O`, in that order: 124 µM and 41 µM.
In the case of `COc1cccc(/C=N/NC(=O)c2cccc(O)c2O)c1OC`, the IC50 in test [4] is 18 µM; in test [2], 112 µM; in test [5], more than 333 µM; in test [3], 68 µM.
For the molecule `O=C1c2c(ccc(O)c2O)CN1NS(=O)(=O)c1ccc(F)cc1`, the figures for the 50% inhibitory concentration (IC50) in test [2] and in test [3] were 69 µM and 21 µM, respectively.
`O=C1c2c(ccc(O)c2O)CN1/N=C/c1ccc(F)cc1`: the concentration for half-maximal inhibition (IC50) in test [2] and in test [3] was more than 333 µM throughout.
Turning to `O=C1c2c(ccc(O)c2O)CN1Cc1ccc(F)cc1`, in test [1], the EC50 stood at 0.77 µM. Further, the IC50 was determined as 282 µM in test [2] and 10 µM in test [3].
As to `O=C1c2c(ccc(O)c2O)CN1N(S(=O)(=O)c1ccc(O)c(O)c1)S(=O)(=O)c1ccc(O)c(O)c1`, the half-inhibitory concentration (IC50) in test [2] is 1.6 µM; in test [3], 0.21 µM.
For `O=C(NNC(=O)c1ccccc1O)c1ccccc1O`, the IC50 was 1.8 µM in test [4], more than 333 µM in test [2], 3.6 µM in test [5] and more than 333 µM in test [3]. The EC50 in test [1] turned out to be 2.2 µM.
Consider `O=C1c2cccc(O)c2C(=O)N1Cc1ccc(F)cc1`, for which the IC50 in test [2] and in test [3] was more than 333 µM throughout.
For the molecule `O=C1c2c(ccc(O)c2O)CN1/N=C/c1cccc(O)c1O`, the IC50 in test [2] worked out at 87 µM; in test [3] it was 54 µM.
As for `COc1cccc(C(=O)NNC(=O)c2cccnc2)c1O`, the IC50 in test [4], in test [2], in test [5] and in test [3] was more than 333 µM in each case.
As for `COc1cccc(C(=O)NNC(=O)c2cccc(OC)c2O)c1O`, the concentration for half-maximal inhibition (IC50) worked out at 22 µM in test [4], 245 µM in test [2], 26 µM in test [5] and 123 µM in test [3].
Regarding `O=C(NN1Cc2ccc(O)c(O)c2C1=O)c1ccc(F)cc1`, the IC50 in test [2] is more than 333 µM; in test [3] it was 170 µM.
For the molecule `O=C1c2c(ccc(O)c2O)CN1Cc1cccc(CBr)c1`, the IC50 in test [2] was determined as 37 µM; in test [3], 13 µM.
As to `O=C1c2c(ccc(O)c2O)CN1Cc1ccc(F)c(Cl)c1`, the IC50 in test [2] was 13 µM; in test [3] it was 0.16 µM.
As for `O=C1c2c(ccc(O)c2O)CN1Cc1cccc(Cc2ccccc2)c1`, the IC50 was more than 333 µM in test [2] and 172 µM in test [3].
For `O=C(NCCNC(=O)c1cccc(O)c1O)c1cccc(O)c1O`, in that order: 85 µM and 50 µM.
Consider `O=C1c2c(ccc(O)c2O)CN1N(S(=O)(=O)c1ccc(F)cc1)S(=O)(=O)c1ccc(F)cc1`, for which the 50% inhibitory concentration (IC50) was more than 333 µM in test [2] and 33 µM in test [3].
On to `O=C1c2c(ccc(O)c2O)CN1N1C(=O)c2cc(O)c(O)cc2C1=O`, for which the IC50 in test [2] turned out to be 6.7 µM; in test [3], 0.81 µM.
As for `O=C(NCCCNC(=O)c1cccc(O)c1O)c1cccc(O)c1O`, the half-inhibitory concentration (IC50) in test [2] stood at 33 µM; in test [3], 31 µM.
Consider `O=C1c2c(ccc(O)c2O)CN1N1C(=O)c2cccc(O)c2C1=O`, for which the IC50 is 42 µM in test [2] and 11 µM in test [3].
For the molecule `O=C1c2c(ccc(O)c2O)CN1N1C(=O)c2ccc(O)c(O)c2C1=O`, the IC50 was found to be 78 µM in test [2] and 0.6 µM in test [3].
